Experimental data: ChEMBL document CHEMBL1201862, “PubChem BioAssay data set” (2004)
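Where inhibition never reached the appropriate level, the endpoint shown equals the highest concentration tested. Otherwise, values were interpolated linearly from a five-concentration, 48-hour dose response in 96-well plates. GI50 is the concentration that inhibits growth by half.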 Calls of active or inactive are those of the source. Cut-off read from the data, not from the text of the source: active = GI50 up to about 1.1 µM and inactive = higher.

What was measured:
Experiment in all cases: DTP human tumour cell line panel, 48 h
HCC 2998 = system: HCC 2998
CAKI-1 = system: CAKI-1
KM12 = system: KM12
RXF 393 = system: RXF 393
NCI/ADR-RES = system: NCI/ADR-RES
Malme-3M = system: Malme-3M
DU-145 = system: DU-145
UACC-62 = system: UACC-62
SK-MEL-5 = system: SK-MEL-5
SF-268 = system: SF-268
COLO 205 = system: COLO 205
SR = system: SR
HCT-116 = system: HCT-116
HOP-92 = system: HOP-92
ACHN = system: ACHN
MDA-MB-231 = system: MDA-MB-231
NCI-H226 = system: NCI-H226
SNB-75 = system: SNB-75
UACC-257 = system: UACC-257
LOX IMVI = system: LOX IMVI

Compound	GI50 (HCC 2998)	GI50 (CAKI-1)	GI50 (KM12)	GI50 (RXF 393)	GI50 (NCI/ADR-RES)	GI50 (Malme-3M)	GI50 (DU-145)	GI50 (UACC-62)	GI50 (SK-MEL-5)	GI50 (SF-268)	GI50 (COLO 205)	GI50 (SR)	GI50 (HCT-116)	GI50 (HOP-92)	GI50 (ACHN)	GI50 (MDA-MB-231)	GI50 (NCI-H226)	GI50 (SNB-75)	GI50 (UACC-257)	GI50 (LOX IMVI)
O=C1OCCC12CN(Cc1ccccc1)N=N2 (stereo not drawn)	> 100 µM (inactive)	58.7 µM (inactive)	> 100 µM (inactive)	> 100 µM (inactive)	> 100 µM (inactive)	12.1 µM (inactive)	87.7 µM (inactive)	> 100 µM (inactive)	> 100 µM (inactive)	> 100 µM (inactive)	> 100 µM (inactive)	13.2 µM (inactive)	> 100 µM (inactive)	> 100 µM (inactive)	29.9 µM (inactive)	> 100 µM (inactive)	–	–	–	–
COc1ccc(/C=N/NC(=O)C2=C(N)N(c3ccccc3)C(=C(C#N)C#N)S2)cc1	> 100 µM (inactive)	–	> 100 µM (inactive)	–	> 100 µM (inactive)	> 100 µM (inactive)	> 100 µM (inactive)	> 100 µM (inactive)	> 100 µM (inactive)	> 100 µM (inactive)	> 100 µM (inactive)	> 100 µM (inactive)	> 100 µM (inactive)	39.3 µM (inactive)	> 100 µM (inactive)	79.6 µM (inactive)	> 100 µM (inactive)	16 µM (inactive)	> 100 µM (inactive)	–
COc1cc(OC)c(-n2[nH]c(=O)n(C)c2=O)c(OC)c1	> 100 µM (inactive)	> 100 µM (inactive)	> 100 µM (inactive)	> 100 µM (inactive)	> 100 µM (inactive)	> 100 µM (inactive)	> 100 µM (inactive)	> 100 µM (inactive)	–	> 100 µM (inactive)	> 100 µM (inactive)	> 100 µM (inactive)	> 100 µM (inactive)	–	–	> 100 µM (inactive)	> 100 µM (inactive)	> 100 µM (inactive)	> 100 µM (inactive)	> 100 µM (inactive)
C[C@H]1C[C@H]2[C@@H]3C(C)(C)O[C@]4(O)C(=O)[C@]5(O)[C@@H](C)CC[C@H]1[C@]25C(=O)[C@]34C	–	39.4 µM (inactive)	35.6 µM (inactive)	–	39.3 µM (inactive)	–	48.2 µM (inactive)	43.4 µM (inactive)	28.4 µM (inactive)	45.7 µM (inactive)	16.7 µM (inactive)	40.1 µM (inactive)	30.7 µM (inactive)	8.61 µM (inactive)	27.3 µM (inactive)	> 100 µM (inactive)	31.3 µM (inactive)	–	48.5 µM (inactive)	36.1 µM (inactive)
O=C(Cc1ccccc1)NNc1nc(NNC(=O)c2ccncc2)nc(Nc2cccc(Cl)c2)n1	> 10 µM (inactive)	> 10 µM (inactive)	> 10 µM (inactive)	–	> 10 µM (inactive)	> 10 µM (inactive)	> 10 µM (inactive)	> 10 µM (inactive)	> 10 µM (inactive)	> 10 µM (inactive)	> 10 µM (inactive)	> 10 µM (inactive)	–	> 10 µM (inactive)	–	> 10 µM (inactive)	–	> 10 µM (inactive)	> 10 µM (inactive)	> 10 µM (inactive)
CNC(=O)NCCN1CC2CCC(CC2)C1	> 10 µM (inactive)	> 10 µM (inactive)	> 10 µM (inactive)	> 10 µM (inactive)	> 10 µM (inactive)	> 10 µM (inactive)	> 10 µM (inactive)	> 10 µM (inactive)	> 10 µM (inactive)	> 10 µM (inactive)	> 10 µM (inactive)	> 10 µM (inactive)	> 10 µM (inactive)	–	> 10 µM (inactive)	> 10 µM (inactive)	> 10 µM (inactive)	> 10 µM (inactive)	> 10 µM (inactive)	> 10 µM (inactive)
CN(C)CCCNC(=O)c1cc(NC(=O)c2cc(NC(=O)[C@H]3C[C@@H]3C(=O)Nc3cc(C(=O)Nc4cc(C(=O)NCCCN(C)C)n(C)c4)n(C)c3)cn2C)cn1C	> 100 µM (inactive)	> 100 µM (inactive)	> 100 µM (inactive)	–	> 100 µM (inactive)	> 100 µM (inactive)	> 100 µM (inactive)	–	> 100 µM (inactive)	> 100 µM (inactive)	> 100 µM (inactive)	> 100 µM (inactive)	> 100 µM (inactive)	3.24 µM (inactive)	> 100 µM (inactive)	> 100 µM (inactive)	> 100 µM (inactive)	> 100 µM (inactive)	> 100 µM (inactive)	> 100 µM (inactive)
C[C@H](NC1=CC(=O)C(N[C@@H](C)[C@H](O)c2ccccc2)=CC1=O)[C@H](O)c1ccccc1	–	> 100 µM (inactive)	59.3 µM (inactive)	> 100 µM (inactive)	92.7 µM (inactive)	67.6 µM (inactive)	> 100 µM (inactive)	87.9 µM (inactive)	49.5 µM (inactive)	> 100 µM (inactive)	68.5 µM (inactive)	14.6 µM (inactive)	68.4 µM (inactive)	> 100 µM (inactive)	96.6 µM (inactive)	76.2 µM (inactive)	62.1 µM (inactive)	–	> 100 µM (inactive)	> 100 µM (inactive)
COC1OC2COC1(OCc1ccccc1)C1OC(C)(C)OC21 (stereo not drawn)	> 100 µM (inactive)	> 100 µM (inactive)	> 100 µM (inactive)	> 100 µM (inactive)	> 100 µM (inactive)	> 100 µM (inactive)	> 100 µM (inactive)	> 100 µM (inactive)	> 100 µM (inactive)	> 100 µM (inactive)	> 100 µM (inactive)	> 100 µM (inactive)	> 100 µM (inactive)	–	> 100 µM (inactive)	> 100 µM (inactive)	> 100 µM (inactive)	> 100 µM (inactive)	> 100 µM (inactive)	–
CCCCCCCCCCCCCOCCOCCOCCCCC(O)CCCCCCCCCC1=C[C@H](C)OC1=O (stereo partly drawn)	17 µM (inactive)	19.1 µM (inactive)	19.1 µM (inactive)	20.1 µM (inactive)	10 µM (inactive)	–	21.7 µM (inactive)	20 µM (inactive)	6.93 µM (inactive)	18.1 µM (inactive)	20.9 µM (inactive)	2.08 µM (inactive)	0.766 µM (active)	–	28.6 µM (inactive)	22.4 µM (inactive)	12.8 µM (inactive)	21.1 µM (inactive)	13.2 µM (inactive)	4.31 µM (inactive)
CCOC(=O)c1cc(C2CCN(c3ccccc3)C2=O)c(C(=O)/C=C(/C)O)[nH]1 (stereo not drawn)	> 100 µM (inactive)	47.8 µM (inactive)	45.2 µM (inactive)	21.6 µM (inactive)	73.5 µM (inactive)	> 100 µM (inactive)	> 100 µM (inactive)	82 µM (inactive)	36.3 µM (inactive)	> 100 µM (inactive)	> 100 µM (inactive)	34.1 µM (inactive)	65.8 µM (inactive)	–	> 100 µM (inactive)	81.5 µM (inactive)	> 100 µM (inactive)	74.5 µM (inactive)	89.1 µM (inactive)	58.6 µM (inactive)
Cc1ncc([N+](=O)[O-])n1CCNCCCCn1ccnc1[N+](=O)[O-]	–	> 100 µM (inactive)	> 100 µM (inactive)	> 100 µM (inactive)	> 100 µM (inactive)	> 100 µM (inactive)	> 100 µM (inactive)	> 100 µM (inactive)	> 100 µM (inactive)	> 100 µM (inactive)	> 100 µM (inactive)	> 100 µM (inactive)	> 100 µM (inactive)	> 100 µM (inactive)	> 100 µM (inactive)	> 100 µM (inactive)	> 100 µM (inactive)	> 100 µM (inactive)	> 100 µM (inactive)	> 100 µM (inactive)
CC1(C)CCC[C@]2(C)[C@H]3[C@H](C#N)c4cc(O)c(O)cc4O[C@@]3(C)CC[C@@H]12	> 10 µM (inactive)	> 10 µM (inactive)	> 10 µM (inactive)	> 10 µM (inactive)	> 10 µM (inactive)	–	> 10 µM (inactive)	–	> 10 µM (inactive)	> 10 µM (inactive)	> 10 µM (inactive)	> 10 µM (inactive)	–	> 10 µM (inactive)	> 10 µM (inactive)	> 10 µM (inactive)	> 10 µM (inactive)	–	> 10 µM (inactive)	> 10 µM (inactive)
O=C1c2ccccc2-c2nc(-c3cccc([N+](=O)[O-])c3)nnc21	–	4.24 µM (inactive)	8 µM (inactive)	24.3 µM (inactive)	13.4 µM (inactive)	17.5 µM (inactive)	4.25 µM (inactive)	9.12 µM (inactive)	2.69 µM (inactive)	43.1 µM (inactive)	3.91 µM (inactive)	1.11 µM (active)	23.1 µM (inactive)	> 100 µM (inactive)	3.98 µM (inactive)	16.6 µM (inactive)	7.91 µM (inactive)	21.4 µM (inactive)	3.24 µM (inactive)	–
O=C1NC(Cc2c[nH]c3ccccc23)C(=O)N2C(C3CCCCC3)c3[nH]c4ccccc4c3C[C@@H]12 (stereo partly drawn)	–	18.3 µM (inactive)	11.8 µM (inactive)	5.98 µM (inactive)	11.7 µM (inactive)	13.1 µM (inactive)	24.3 µM (inactive)	15.3 µM (inactive)	12.8 µM (inactive)	13.1 µM (inactive)	17.2 µM (inactive)	7.45 µM (inactive)	10.2 µM (inactive)	15.4 µM (inactive)	17.7 µM (inactive)	15.1 µM (inactive)	24.2 µM (inactive)	–	12.1 µM (inactive)	13.3 µM (inactive)
